Broadly, the AUC(0-inf) is the area under the concentration-time curve extrapolated to infinity. A higher AUC(0-inf) goes with more exposure. Broadly, the Cmax is the highest concentration seen after dosing. By MRT is commonly meant a mean duration of stay, worked out from the concentration-time curve. Usually clearance stands for the volume of plasma or blood freed of the substance per unit of time. As usually defined, the half-life is how long it takes for the measured level to halve. A higher half-life goes with slow decline. The Tmax is the time at which the peak concentration occurs. A word on the bioavailability: it is dose-corrected exposure relative to a reference, in per cent.

Ends that are not written are not given here. * marks the point of attachment. Propanoyl(3-maleimido) = O=C1C=CC(=O)N1CCC(=O)*

Here are results for five molecules from patent publication US7737251B2, “Long lasting glucagon-like peptide 2 (GLP-2) for the treatment of gastrointestinal diseases and disorders” (ConjuChem Biotechnologies Inc., priority 2001, dated 2010).

Common to all, as to assay type: in vivo
Data set [1] has as its system normal mice. The data set can be described thus: Intestinotrophic activity in normal mice model (small intestine weight). The following applies: 5 μg/dose sc twice daily for 10 days, male CD-1 mice; for small intestine weight: vs saline control. As for the experimental part:
The intestinotrophic activity of the compounds of Examples 1-8 has been evaluated in a normal mice model. Five-week-old male CD-1 mice (20-25 g) were treated twice daily for 10 consecutive days with 5 μg/dose of each compound dissolved in 0.9% NaCl aqueous solution. The compounds were administered via subcutaneous injections in the dorsal-lateral area of the lumbar region. Control animals received 0.25 ml/dose of 0.9% NaCl.
On day 11, mice were fasted for 4 hours and anesthetized with CO2 Small intestines were removed, cleaned and weighed.

Data set [2] has as its system CD-1 mice. Description: Dose-response with selected Gly2-GLP-2 analogues (small and large intestine weight). The following applies: 5, 25 or 50 μg/dose sc twice daily for 10 days, female CD-1 mice. As for the experimental part: Six-week-old female CD-1 mice (20-25 g) were treated twice daily for 10 consecutive days with 5, 25 or 50 μg/dose of the compounds of Examples 5, 7 and 8. The compounds were dissolved in 0.083M sodium phosphate buffer, pH 6.8 and administered via subcutaneous injections in the dorsal-lateral area of the lumbar region. Control animals received 0.25 ml/dose of sodium phosphate buffer.
On day 11, fed mice were anesthetized with Halothane™ and small intestine, large intestine and stomach were collected from each mouse after laparatomy. The tissues were then cleaned and weighed.

The nature of data set [3]: Pharmacokinetic profiles in rats (plasma radioimmunoassay). The following applies: male, rat, single 500 nmol/kg, Sprague-Dawley rats; for half-life: harmonic mean; for Vd: read-out: Vss; for Tmax: expressed as media; for bioavailability: read-out: F (absolute bioavailability). As for the experimental part:
The pharmacokinetic profiles of the compounds of Examples 5 and 8 were studied in normal rats following a single intravenous or subcutaneous injection. Plasma concentrations were determined by radioimmunoassay with a commercial antibody anti-human GLP-2.
Test articles were dissolved in 0.083M sodium phosphate buffer, pH 6.8 and administered to eight to eleven-week-old male Sprague-Dawley rats by a single intravenous or subcutaneous injection at a dose level of 500 nmol/kg. Serial blood samples (I50-200 μl) were collected into tubes containing EDTA and DPP-IV inhibitor at the following time-points: pre-dose, 5 and 30 min., and 1, 2, 4, 8, 24, 48, 72 and 96 hours post-test agent administration. Whole blood was centrifuged and subsequent plasma samples were recovered and stored at −80° C. until analysis.
The plasma concentrations of the compounds of Examples 5 and 8 were determined by radioimmunoassay using a rabbit polyclonal antibody anti-human GLP-2 (Peninsula Laboratories, RGG7167) and iodinated human GLP-2 as tracer.
Descriptive pharmacokinetic parameters were determined by standard model-independent methods (Gibaldi and Perrier, 1982) based on the analysis of plasma concentration-time data. Pharmacokinetic analyses were performed using macros written for Microsoft Excel 97. The following parameters were calculated: • Cmax is the maximum plasma concentration; • Tmax is the time when Cmax is observed; • T1/2 is the terminal half-life; • AUC(0-inf) is the area under the plasma concentration-time curve from time zero to time infinity; • F is the absolute bioavailability, • CL is the systemic clearance; • MRT is mean residence time; and • Vss is the steady-state volume of distribution.

Data set [4] deals with T1, rat albumin (Rattus norvegicus, UniProt P02770).
T1 construct: from tissue; host or cells: rat plasma (Sprague-Dawley rats, in vivo conjugation after iv/sc dosing)
The data set can be described thus: Immunoblotting of rat plasma for conjugation to plasma proteins. As to the method: Plasma samples obtained from the rat pharmacokinetic study were analyzed by immunoblotting. Plasma proteins were separated under non-reducing conditions using sodium-dodecyl-sulfate polyacrylamide gel electrophoresis (SDS-PAGE) according to Laemmli (1970). Plasma samples were first diluted 1:10 with distilled water and 20 μl was mixed with 10 μl of 3× Laemmli buffer (30 mM TrisCl, 3 mM EDTA, 15% SDS, pH 6.8) and 2 μl of bromophenol blue solution (0.1% bromophenol blue, 50% glycerol). Mixtures were placed in a boiling water bath for 3 min and loaded on gel. Proteins were first concentrated in a 3% stacking gel and then migrated through 8% separating gel using a mini-gel system with 10-well combs (1.5×4.8 mm). Electrophoresis was run under constant current at 15 mA/gel to concentrate proteins in stacking gel and at 20 mA/gel in separating gel for approximately 1.5 h.
Proteins were subsequently transferred onto a nitrocellulose membrane using a semi-dry transfer apparatus, for 1 hour at 100 mA/gel. Transfer efficacy was checked by reversible staining of the membrane with 1% red Ponceau™ solution.
Membranes were saturated overnight at 4° C. with Tris Buffered Saline (TBS) containing 5% low fat milk. […]
Background: A western blot detects proteins with antibodies after separation by electrophoresis.

T1 sequence (P02770 25-608): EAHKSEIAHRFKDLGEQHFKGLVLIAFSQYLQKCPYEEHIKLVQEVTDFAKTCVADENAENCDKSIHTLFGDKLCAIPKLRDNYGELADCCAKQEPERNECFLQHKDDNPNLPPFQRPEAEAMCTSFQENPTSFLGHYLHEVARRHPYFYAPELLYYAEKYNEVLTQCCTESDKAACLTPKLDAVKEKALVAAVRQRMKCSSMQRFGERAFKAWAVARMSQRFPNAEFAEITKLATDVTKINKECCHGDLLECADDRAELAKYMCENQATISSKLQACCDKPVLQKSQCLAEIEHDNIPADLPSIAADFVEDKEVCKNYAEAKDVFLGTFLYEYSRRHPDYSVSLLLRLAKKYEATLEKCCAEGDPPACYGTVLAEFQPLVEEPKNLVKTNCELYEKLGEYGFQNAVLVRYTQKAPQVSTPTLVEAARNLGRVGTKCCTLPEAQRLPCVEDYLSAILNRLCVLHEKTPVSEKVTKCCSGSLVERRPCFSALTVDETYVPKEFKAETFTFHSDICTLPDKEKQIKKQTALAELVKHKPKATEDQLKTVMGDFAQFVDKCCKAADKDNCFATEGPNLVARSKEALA

For the molecule `CC[C@H](C)[C@H](NC(=O)[C@H](Cc1ccccc1)NC(=O)[C@H](CC(=O)O)NC(=O)[C@H](CCCNC(=N)N)NC(=O)[C@H](C)NC(=O)[C@H](C)NC(=O)[C@H](CC(C)C)NC(=O)[C@H](CC(N)=O)NC(=O)[C@H](CC(=O)O)NC(=O)[C@H](CC(C)C)NC(=O)[C@@H](NC(=O)[C@@H](NC(=O)[C@H](CC(N)=O)NC(=O)[C@H](CCSC)NC(=O)[C@H](CCC(=O)O)NC(=O)[C@H](CC(=O)O)NC(=O)[C@H](CO)NC(=O)[C@H](Cc1ccccc1)NC(=O)[C@H](CO)NC(=O)CNC(=O)[C@H](CC(=O)O)NC(=O)CNC(=O)[C@@H](N)Cc1c[nH]cn1)[C@@H](C)O)[C@@H](C)CC)C(=O)N[C@@H](CC(N)=O)C(=O)N[C@@H](Cc1c[nH]c2ccccc12)C(=O)N[C@@H](CC(C)C)C(=O)N[C@H](C(=O)N[C@@H](CCC(N)=O)C(=O)N[C@H](C(=O)N[C@@H](CCCCN)C(=O)N[C@H](C(=O)N[C@H](C(=O)N[C@@H](CC(=O)O)C(N)=O)[C@@H](C)O)[C@@H](C)CC)[C@@H](C)O)[C@@H](C)CC` [Example 5], in data set [1], the “intestinotrophic effects compared to the native GLP-2 peptides of Examples 1 and 3” value is recorded as “more pronounced intestinotrophic effects”; the small intestine weight result is reported as “Significant increases”. In addition, in data set [2], the “dose-response, large intestine weight” value is “no dose-response” and the “dose-response, small intestine weight” value is on record as “No dose-response”. In data set [3] (IV), this molecule came in with an AUC(0-inf) of 0.626 µM·h, a Cmax of 1560 nM, an MRT of 0.3 h and a clearance of 13.9 mL/min/kg. Also, in data set [3] (IV), the half-life was 1.5 h and the Vd stood at 0.25 L/kg. Moreover, in data set [3] (SC), the AUC(0-inf) is 0.205 µM·h, the highest concentration (Cmax) turned out to be 159 nM, the time of peak concentration (Tmax) came out at 0.5 h and the half-life is 0.9 h. For the same molecule, the bioavailability in data set [3] (SC) was determined as 32.8%.

With `CC[C@H](C)[C@H](NC(=O)[C@H](Cc1ccccc1)NC(=O)[C@H](CC(=O)O)NC(=O)[C@H](CCCNC(=N)N)NC(=O)[C@H](C)NC(=O)[C@H](C)NC(=O)[C@H](CC(C)C)NC(=O)[C@H](CC(N)=O)NC(=O)[C@H](CC(=O)O)NC(=O)[C@H](CC(C)C)NC(=O)[C@@H](NC(=O)[C@@H](NC(=O)[C@H](CC(N)=O)NC(=O)[C@H](CCSC)NC(=O)[C@H](CCC(=O)O)NC(=O)[C@H](CC(=O)O)NC(=O)[C@H](CO)NC(=O)[C@H](Cc1ccccc1)NC(=O)[C@H](CO)NC(=O)CNC(=O)[C@H](CC(=O)O)NC(=O)CNC(=O)[C@@H](N)Cc1c[nH]cn1)[C@@H](C)O)[C@@H](C)CC)C(=O)N[C@@H](CC(N)=O)C(=O)N[C@@H](Cc1c[nH]c2ccccc12)C(=O)N[C@@H](CC(C)C)C(=O)N[C@H](C(=O)N[C@@H](CCC(N)=O)C(=O)N[C@H](C(=O)N[C@@H](CCCCN)C(=O)N[C@H](C(=O)N[C@H](C(=O)N[C@@H](CC(=O)O)C(=O)N[C@@H](CCCCNC(=O)CCN1C(=O)C=CC1=O)C(N)=O)[C@@H](C)O)[C@@H](C)CC)[C@@H](C)O)[C@@H](C)CC` [Example 8], in data set [1], the “intestinotrophic effects compared to the native GLP-2 peptides of Examples 1 and 3” value is “more pronounced intestinotrophic effects”; the small intestine weight result was “Significant increases”. In data set [2], the “dose-response, large intestine weight” value was “possible dose-response” and the “dose-response, small intestine weight” value is “possible dose-response”. In data set [3] (IV), the AUC(0-inf) amounted to 89.4 µM·h, the peak level (Cmax) was 10100 nM, the MRT came to 16.9 h and the clearance turned out to be 0.0942 mL/min/kg. Moreover, in data set [3] (IV), the half-life was 16.2 h and the Vd stood at 0.0953 L/kg. In addition, in data set [3] (SC), the AUC(0-inf) turned out to be 13.5 µM·h, the maximum concentration (Cmax) was found to be 651 nM, the Tmax amounted to 0.5 h and the half-life is 23.8 h. Also, in data set [3] (SC), the bioavailability was 15.2%. In addition, the “conjugation to rat albumin” value in data set [4] (post-iv administration, anti-GLP-2 immunoblot) is listed as “conjugates efficiently to rat albumin”. Besides, the signal on albumin entry in data set [4] (post-sc administration, anti-GLP-2 immunoblot (not shown)) is recorded as “weak signal”.

Take “His-Ala-Asp-Gly-Ser-Phe-Ser-Asp-Glu-Met-Asn-Thr-Ile-Leu-Asp-Asn-Leu-Ala-Ala-Arg-Asp-Phe -Ile-Asn-Trp-Leu-Ile-Gln-Thr-Lys-Ile-Thr-Asp-CONH2 (HADGSFSDEMNTILDNLAARDFINWLIQTKITD-NH2) [Example 1]”: the small intestine weight result in data set [1] is “Significant increases”.

On to “His-Ala-Asp-Gly-Ser-Phe-Ser-Asp-Glu-Met-Asn-Thr-Ile-Leu-Asp-Asn-Leu-Ala-Ala-Arg-Asp-Phe -Ile-Asn-Trp-Leu-Ile-Gln-Thr-Lys-Ile-Thr-Asp-Lys(MPA)-CONH2 (HADGSFSDEMNTILDNLAARDFINWLIQTKITDK; MPA; C-terminal amide; analog of GLP-2; VARIANT (34)...(34): MPA attached to the Lys residue; AMIDATION (34)...(34)) [Example 3]”, for which, in data set [1], the small intestine weight entry is listed as “Significant increases”.

Regarding “His-Gly-Asp-Gly-Ser-Phe-Ser-Asp-Glu-Met-Asn-Thr-Ile-Leu-Asp-Lys(MPA)-Leu-Ala-Ala-Arg -Asp-Phe-Ile-Asn-Trp-Leu-Ile-Gln-Thr-Lys-Ile-Thr-Asp-CONH2 (HGDGSFSDEMNTILDK(Propanoyl(3-maleimido))LAARDFINWLIQTKITD-NH2; N-terminus assumed; SMILES CC[C@H](C)[C@H](NC(=O)[C@H](Cc1ccccc1)NC(=O)[C@H](CC(=O)O)NC(=O)[C@H](CCCNC(=N)N)NC(=O)[C@H](C)NC(=O)[C@H](C)NC(=O)[C@H](CC(C)C)NC(=O)[C@H](CCCCNC(=O)CCN1C(=O)C=CC1=O)NC(=O)[C@H](CC(=O)O)NC(=O)[C@H](CC(C)C)NC(=O)[C@@H](NC(=O)[C@@H](NC(=O)[C@H](CC(N)=O)NC(=O)[C@H](CCSC)NC(=O)[C@H](CCC(=O)O)NC(=O)[C@H](CC(=O)O)NC(=O)[C@H](CO)NC(=O)[C@H](Cc1ccccc1)NC(=O)[C@H](CO)NC(=O)CNC(=O)[C@H](CC(=O)O)NC(=O)CNC(=O)[C@@H](N)Cc1c[nH]cn1)[C@@H](C)O)[C@@H](C)CC)C(=O)N[C@@H](CC(N)=O)C(=O)N[C@@H](Cc1c[nH]c2ccccc12)C(=O)N[C@@H](CC(C)C)C(=O)N[C@H](C(=O)N[C@@H](CCC(N)=O)C(=O)N[C@H](C(=O)N[C@@H](CCCCN)C(=O)N[C@H](C(=O)N[C@H](C(=O)N[C@@H](CC(=O)O)C(N)=O)[C@@H](C)O)[C@@H](C)CC)[C@@H](C)O)[C@@H](C)CC) [Example 7]”, in data set [1], the “intestinotrophic effects compared to the native GLP-2 peptides of Examples 1 and 3” value is “more pronounced intestinotrophic effects”; the small intestine weight result is listed as “Significant increases”. Further, in data set [2], the “dose-response, large intestine weight” value is “no dose-response” and the “dose-response, small intestine weight” value is on record as “No dose-response”.
